According to PMC8635542, “Pharmacokinetic study on the interaction between succinic acid and irbesartan in rats and its potential mechanism” (Pharmaceutical Biology, 2021):
pIC50: −log10 of the molar value.

Test system: T1, CYP2C9
T1 construct: gene Cyp2c6
Conditions: diclofenac as substrate, NADPH-regenerating system (G-6-P, NADP+, G-6-PDH), MgCl2; succinic acid 0-100 μM

pIC50: 4.86
Structure (SMILES): O=C(O)CCC(=O)O [succinic acid]
